Data reported in patent publication US10590086B2, “Pharmaceutical compound” (IOmet Pharma Ltd., priority 2014, dated 2020).

Key:
TDO = TDO (Homo sapiens, UniProt P48775); assay: A172 kynurenine cell-based assay; set-up: This assay utilised cancer cells which expressed either TDO or IDO; endogenous in cells; host or cells: A172 (human glioblastoma); settings: A172 human glioblastoma cells, 48 hours, 500 μM L-tryptophan; read-out: A172 Kynurenine cell based assay pIC50 (converted)
Description: (§1) Exemplary compounds of the invention were prepared, and tested to determine their effect as TDO and/or IDO inhibitors. Two different assays were employed: 1. a cell-based assay for detecting the effect of test compounds on kynurenine production in two different cancer cell types. This assay utilised cancer cells which expressed either TDO or IDO and as such was used as a means of testing compound activity at these two enzymes in a cell-based context. 2. a TDO and IDO biochemical coupled assay which utilised recombinantly produced and purified TDO and IDO enzymes in combination with the enzyme formamidase. This coupled enzyme system allowed conversion of N-formylkynurenine produced by TDO or IDO activity to kynurenine which was then quantified by fluorescence following addition of Erhlich's Reagent The protocols for these are set out below.
(§2) Cell Based Assay for Detection of Kynurenine Produced by TDO and/or IDO
(§3) A172 (human glioblastoma) and SKOV3 (human ovarian adenocarcinoma) cells were seeded in a 96 well plate at 30,000 or 40,000 cells per well respectively in phenol red-free RPMI supplemented with 10% FCS, 2 mM L-glutamine and 500 μM L-tryptophan. IDO expression was induced in the SKOV3 cells by the addition of 500 ng/ml IFN-γ. Cells were incubated at 37° C. with or without the addition of test compound. After 48 hours, the cells were removed by centrifugation and Erhlich's reagent was added to the supernatant. The Erhlich's reagent was incubated for 5 minutes before the absorbance was read at 490 nm.

IDO = IDO (Homo sapiens, UniProt P14902); assay: SKOV3 kynurenine cell-based assay (IDO induced by IFN-γ); set-up: IDO expression was induced in the SKOV3 cells by the addition of 500 ng/ml IFN-γ; endogenous in cells; host or cells: SKOV3 (human ovarian adenocarcinoma), induced with IFN-γ; settings: SKOV3 human ovarian adenocarcinoma cells, 500 ng/ml IFN-γ, 48 hours, 500 μM L-tryptophan; read-out: SKOV3 Kynurenine cell based assay pIC50 (converted)
Chain of IDO (P14902 whole entry): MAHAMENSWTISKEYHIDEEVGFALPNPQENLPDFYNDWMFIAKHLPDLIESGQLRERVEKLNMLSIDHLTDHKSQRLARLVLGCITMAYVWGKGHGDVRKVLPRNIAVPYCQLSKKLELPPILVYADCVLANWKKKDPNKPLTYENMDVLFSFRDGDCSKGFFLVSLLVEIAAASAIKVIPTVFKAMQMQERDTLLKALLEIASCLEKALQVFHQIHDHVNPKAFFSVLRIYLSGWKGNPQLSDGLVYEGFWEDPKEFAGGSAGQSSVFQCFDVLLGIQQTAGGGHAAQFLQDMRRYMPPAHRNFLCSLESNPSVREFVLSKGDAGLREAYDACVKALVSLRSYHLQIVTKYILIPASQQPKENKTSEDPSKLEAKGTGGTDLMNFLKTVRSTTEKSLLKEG
Description: as §1, §2, §3

Chain of TDO (P48775 whole entry): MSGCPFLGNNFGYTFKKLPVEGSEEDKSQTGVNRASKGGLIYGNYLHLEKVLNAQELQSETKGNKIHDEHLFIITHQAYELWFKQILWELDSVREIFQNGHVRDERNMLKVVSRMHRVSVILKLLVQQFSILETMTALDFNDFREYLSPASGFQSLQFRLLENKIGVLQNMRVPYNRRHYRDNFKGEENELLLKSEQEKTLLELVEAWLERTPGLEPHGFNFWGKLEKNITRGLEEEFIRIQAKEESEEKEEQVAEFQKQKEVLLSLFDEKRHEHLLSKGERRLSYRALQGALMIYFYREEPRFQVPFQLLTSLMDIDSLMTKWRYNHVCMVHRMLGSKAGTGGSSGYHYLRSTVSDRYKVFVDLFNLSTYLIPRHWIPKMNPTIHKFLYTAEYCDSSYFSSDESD

| Compound | IC50 (TDO) | IC50 (IDO) |
| --- | --- | --- |
| CC(=O)Nc1cccc2[nH]ncc12 [Compound 6] | 32.4 to 100 µM | > 100 µM |
| O=S(=O)(Cc1ccccc1)N1CCN(c2cccc3[nH]ncc23)CC1 [Compound 13] | 3.24 to 31.6 µM | 32.4 to 100 µM |
| CCCS(=O)(=O)N1CCN(c2cccc3[nH]ncc23)CC1 [Compound 16] | 3.24 to 31.6 µM | 32.4 to 100 µM |
| O=S(=O)(CC(F)(F)F)N1CCN(c2cccc3[nH]ncc23)CC1 [Compound 18] | 32.4 to 100 µM | > 100 µM |
| NS(=O)(=O)N1CCN(c2cccc3[nH]ncc23)CC1 [Compound 20] | 3.24 to 31.6 µM | 3.24 to 31.6 µM |
| COCCS(=O)(=O)N1CCN(c2cccc3[nH]ncc23)CC1 [Compound 23] | > 100 µM | 32.4 to 100 µM |
| CNS(=O)(=O)N1CCN(c2cccc3[nH]ncc23)CC1 [Compound 24] | 3.24 to 31.6 µM | 32.4 to 100 µM |
| CC(=O)N1CCN(c2cccc3[nH]ncc23)CC1C (stereo not drawn) [Compound 27] | 3.24 to 31.6 µM | 32.4 to 100 µM |
| CC1CN(c2cccc3[nH]ncc23)CCN1S(C)(=O)=O (stereo not drawn) [Compound 29] | 3.24 to 31.6 µM | 32.4 to 100 µM |
| Cc1cc(N2CCN(S(C)(=O)=O)CC2)c2cn[nH]c2c1 [Compound 31] | < 3.16 µM | 32.4 to 100 µM |
| CS(=O)(=O)N1CCC(c2cc(-c3ccccc3)cc3[nH]ncc23)CC1 [Compound 32] | 3.24 to 31.6 µM | 32.4 to 100 µM |
| CS(=O)(=O)N1CCN(c2cc(-c3ccccc3)cc3[nH]ncc23)CC1 [Compound 33] | 3.24 to 31.6 µM | 32.4 to 100 µM |
| Cc1ccc(C2CCN(S(C)(=O)=O)CC2)c2cn[nH]c12 [Compound 39] | > 100 µM | 32.4 to 100 µM |
| CS(=O)(=O)N1CCC(c2ccc(Cl)c3[nH]ncc23)CC1 [Compound 42] | 32.4 to 100 µM | 3.24 to 31.6 µM |
| CS(=O)(=O)N1CCN(c2ccc3[nH]ncc3c2)CC1 [Compound 43] | 3.24 to 31.6 µM | 32.4 to 100 µM |
| CC(=O)N1CCN(c2cc(Cl)cc3[nH]ncc23)CC1(C)C [Compound 46] | < 3.16 µM | < 3.16 µM |
| CN1CC2CN(c3cccc4[nH]ncc34)CCN2C1=O (stereo not drawn) [Compound 47] | 3.24 to 31.6 µM | > 100 µM |
| CC(=O)N1CCN(c2cc(C(F)(F)F)cc3[nH]ncc23)CC1 [Compound 48] | < 3.16 µM | 3.24 to 31.6 µM |
| CS(=O)(=O)N1CCN(c2cc(C(F)(F)F)cc3[nH]ncc23)CC1 [Compound 49] | < 3.16 µM | 3.24 to 31.6 µM |
| c1ccc(CCNc2cccc3[nH]ncc23)cc1 [Compound 50] | 32.4 to 100 µM | 32.4 to 100 µM |
| CC(=O)N1CCN(c2cc(F)cc3[nH]ncc23)CC1 [Compound 51] | 3.24 to 31.6 µM | > 100 µM |
| CS(=O)(=O)N1CCC(Oc2cccc3[nH]ncc23)CC1 [Compound 52] | 3.24 to 31.6 µM | 32.4 to 100 µM |

| Compound | IC50 (TDO) | IC50 (IDO) |
| --- | --- | --- |
| CC(=O)N1CCC(Oc2cccc3[nH]ncc23)CC1 [Compound 53] | 3.24 to 31.6 µM | < 3.16 µM |
| O=S(=O)(C1CC1)N1CCN(c2cc(Cl)cc3[nH]ncc23)CC1 [Compound 54] | < 3.16 µM | 3.24 to 31.6 µM |
| O=S(=O)(c1ccccc1)N1CCN(c2cc(Cl)cc3[nH]ncc23)CC1 [Compound 55] | < 3.16 µM | 3.24 to 31.6 µM |
| O=S(=O)(Cc1ccccc1)N1CCN(c2cc(Cl)cc3[nH]ncc23)CC1 [Compound 56] | < 3.16 µM | 3.24 to 31.6 µM |
| O=S(=O)(C1CCCC1)N1CCN(c2cc(Cl)cc3[nH]ncc23)CC1 [Compound 57] | < 3.16 µM | 3.24 to 31.6 µM |
| CC(=O)N1CCCN(c2cccc3[nH]ncc23)CC1 [Compound 58] | 3.24 to 31.6 µM | > 100 µM |
| CNC(=O)CN1CCN(c2cc(Cl)cc3[nH]ncc23)CC1 [Compound 59] | < 3.16 µM | 3.24 to 31.6 µM |
| CS(=O)(=O)N1CCCN(c2cccc3[nH]ncc23)CC1 [Compound 60] | 3.24 to 31.6 µM | > 100 µM |
| CC(C)S(=O)(=O)N1CCN(c2cc(Cl)cc3[nH]ncc23)CC1 [Compound 61] | < 3.16 µM | 3.24 to 31.6 µM |
| CN(CCNc1cccc2[nH]ncc12)S(C)(=O)=O [Compound 62] | 32.4 to 100 µM | > 100 µM |
| CCCS(=O)(=O)N1CCN(c2cc(Cl)cc3[nH]ncc23)CC1 [Compound 63] | < 3.16 µM | 3.24 to 31.6 µM |
| COCCS(=O)(=O)N1CCN(c2cc(Cl)cc3[nH]ncc23)CC1 [Compound 64] | < 3.16 µM | 3.24 to 31.6 µM |
| CN(C)C(=O)CN1CCN(c2cc(Cl)cc3[nH]ncc23)CC1 [Compound 65] | 3.24 to 31.6 µM | 32.4 to 100 µM |
| Cc1n[nH]c2cc(Cl)cc(N3CCN(S(C)(=O)=O)CC3)c12 [Compound 66] | 3.24 to 31.6 µM | 3.24 to 31.6 µM |
| CC(C)c1cc(N2CCN(S(C)(=O)=O)CC2)c2cn[nH]c2c1 [Compound 67] | 3.24 to 31.6 µM | 32.4 to 100 µM |
| CC(=O)N1CCN(c2cc(C(C)C)cc3[nH]ncc23)CC1 [Compound 68] | 3.24 to 31.6 µM | > 100 µM |
| COc1cc(N2CCN(S(C)(=O)=O)CC2)c2cn[nH]c2c1 [Compound 69] | 3.24 to 31.6 µM | > 100 µM |
| COc1cc(N2CCN(C(C)=O)CC2)c2cn[nH]c2c1 [Compound 70] | 3.24 to 31.6 µM | > 100 µM |
| CC(=O)N1CCCN(c2cc(Cl)cc3[nH]ncc23)CC1 [Compound 71] | < 3.16 µM | 3.24 to 31.6 µM |
| CS(=O)(=O)N1CCCN(c2cc(Cl)cc3[nH]ncc23)CC1 [Compound 72] | < 3.16 µM | 3.24 to 31.6 µM |
| CC1CN(c2cc(Cl)cc3[nH]ncc23)CCN1S(C)(=O)=O (stereo not drawn) [Compound 73] | < 3.16 µM | < 3.16 µM |
| CC(=O)N1CCN(c2cc(Cl)cc3[nH]ncc23)CC1C (stereo not drawn) [Compound 74] | < 3.16 µM | 3.24 to 31.6 µM |

| Compound | IC50 (TDO) | IC50 (IDO) |
| --- | --- | --- |
| CS(=O)(=O)N1CCC(Nc2cccc3[nH]ncc23)CC1 [Compound 75] | 32.4 to 100 µM | > 100 µM |
| CC(=O)N1CCN(c2cc(Br)cc3[nH]ncc23)CC1 [Compound 76] | < 3.16 µM | 3.24 to 31.6 µM |
| CS(=O)(=O)N1CC=C(c2cc(Cl)cc3[nH]ncc23)CC1 [Compound 77] | < 3.16 µM | 3.24 to 31.6 µM |
| CC(=O)N1CCN(c2cc(C(F)(F)F)cc3[nH]ncc23)CC1(C)C [Compound 79] | < 3.16 µM | < 3.16 µM |
| CNC(=O)N1CCN(c2cc(Cl)cc3[nH]ncc23)CC1 [Compound 80] | < 3.16 µM | 3.24 to 31.6 µM |
| NS(=O)(=O)N1CCN(c2cc(Cl)cc3[nH]ncc23)CC1 [Compound 81] | < 3.16 µM | 3.24 to 31.6 µM |
| CN(C)C(=O)N1CCN(c2cc(Cl)cc3[nH]ncc23)CC1 [Compound 82] | < 3.16 µM | 3.24 to 31.6 µM |
| CCC1CN(c2cc(Cl)cc3[nH]ncc23)CCN1S(C)(=O)=O (stereo not drawn) [Compound 83] | < 3.16 µM | 3.24 to 31.6 µM |
| CCC1CN(c2cc(Cl)cc3[nH]ncc23)CCN1C(C)=O (stereo not drawn) [Compound 84] | < 3.16 µM | 3.24 to 31.6 µM |
| OCCOc1cc(Cl)cc2[nH]ncc12 [Compound 85] | 3.24 to 31.6 µM | 32.4 to 100 µM |
| CC(=O)N1CCC(c2cc(C3CC3)cc3[nH]ncc23)CC1 [Compound 86] | 3.24 to 31.6 µM | 3.24 to 31.6 µM |
| CS(=O)(=O)N1CCC(c2cc(C3CC3)cc3[nH]ncc23)CC1 [Compound 87] | < 3.16 µM | 3.24 to 31.6 µM |
| O=C1NCC2CN(c3cc(Cl)cc4[nH]ncc34)CCN12 (stereo not drawn) [Compound 88] | < 3.16 µM | 3.24 to 31.6 µM |
| O=S1(=O)CCC2CN(c3cc(Cl)cc4[nH]ncc34)CCN21 (stereo not drawn) [Compound 89] | < 3.16 µM | 3.24 to 31.6 µM |
| CC(=O)N1CCN(c2cc(Br)cc3[nH]ncc23)CC1(C)C [Compound 90] | < 3.16 µM | < 3.16 µM |
| Clc1cc(N2CCN(c3ccccc3)CC2)c2cn[nH]c2c1 [Compound 92] | < 3.16 µM | 3.24 to 31.6 µM |
| CC(=O)N1CCN(c2cc(Cl)cc3[nH]ncc23)CC12CC2 [Compound 93] | < 3.16 µM | 3.24 to 31.6 µM |
| CS(=O)(=O)N1CCN(c2cc(Cl)cc3[nH]ncc23)CC12CC2 [Compound 94] | < 3.16 µM | 3.24 to 31.6 µM |
| CN1CCN(c2cc(Cl)cc3[nH]ncc23)CC1 [Compound 95] | 3.24 to 31.6 µM | > 100 µM |
| CS(=O)(=O)N1CCN(c2cc(Br)cc3[nH]ncc23)CC1 [Compound 96] | < 3.16 µM | 3.24 to 31.6 µM |
| CS(=O)(=O)NCC1CCN(c2cc(Cl)cc3[nH]ncc23)CC1 [Compound 98] | < 3.16 µM | 3.24 to 31.6 µM |
| CC(=O)N1CCC(c2cc(C(F)(F)F)cc3[nH]ncc23)CC1 [Compound 99] | < 3.16 µM | 3.24 to 31.6 µM |
